The supplement of paper PMC10307832

Assays:
Assay in all cases: relative viability (nuclei count vs DMSO), 5 days (fraction); higher = more cells survive
[1] = compound: COC1=C(C=C(C=C1)C2=CC3=NC=CN3C(=N2)NC4=C(C=CC=N4)C(=O)N)OC [BAY61-3606] + O=C(c1cc(Cc2n[nH]c(=O)c3ccccc23)ccc1F)N1CCN(C(=O)C2CC2)CC1 [Olaparib] (partner 8 µM)
Outline: (§1)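 After 5 days of treatment, lung cancer cells in 1536-well plates were fixed and stained in a single step (final 0.05% Triton X-100, 1% formaldehyde, 1 ug/ml Hoechst) and their nuclei counted on 4× images. Treatment had been applied by pin tool the day after seeding as one drug alone or as a fixed anchor-drug dose with five library-drug doses (not always all listed) in √10 steps. Relative viability is the nuclei count of treated wells divided by that of vehicle wells, and values are medians of duplicate plates.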

[2] = compound: COc1cccc2c1C(=O)c1c(O)c3c(c(O)c1C2=O)C[C@@](O)(C(=O)CO)C[C@@H]3O[C@H]1C[C@H](N)[C@H](O)[C@H](C)O1 [Doxorubicin] + COc1cccc2cc(-c3nc([C@H]4CC[C@H](C(=O)O)CC4)n4ncnc(N)c34)[nH]c12 [OSI-027] (partner 0.5 µM)
Outline: as §1

[3] = compound: COc1cccc2c1C(=O)c1c(O)c3c(c(O)c1C2=O)C[C@@](O)(C(=O)CO)C[C@@H]3O[C@H]1C[C@H](N)[C@H](O)[C@H](C)O1 [Doxorubicin] + C[C@@H](Oc1cc(-c2cnn(C3CCNCC3)c2)cnc1N)c1c(Cl)ccc(F)c1Cl [Crizotinib] (partner 1 µM)
Outline: as §1

[4] = compound: COc1cccc2c1C(=O)c1c(O)c3c(c(O)c1C2=O)C[C@@](O)(C(=O)CO)C[C@@H]3O[C@H]1C[C@H](N)[C@H](O)[C@H](C)O1 [Doxorubicin] + CC(=O)Nc1cccc(-n2c(=O)n(C3CC3)c(=O)c3c(Nc4ccc(I)cc4F)n(C)c(=O)c(C)c32)c1 [Trametinib] (partner 0.02 µM)
Outline: as §1

Cell Line | relative viability ([1]; first compound 0.02 µM) | relative viability ([1]; first compound 0.06325 µM) | relative viability ([1]; first compound 0.2 µM) | relative viability ([1]; first compound 0.6325 µM) | relative viability ([1]; first compound 2 µM) | relative viability ([2]; first compound 0.001 µM) | relative viability ([2]; first compound 0.003162 µM) | relative viability ([2]; first compound 0.01 µM) | relative viability ([2]; first compound 0.03162 µM) | relative viability ([2]; first compound 0.1 µM) | relative viability ([3]; first compound 0.001 µM) | relative viability ([3]; first compound 0.003162 µM) | relative viability ([3]; first compound 0.01 µM) | relative viability ([3]; first compound 0.03162 µM) | relative viability ([3]; first compound 0.1 µM) | relative viability ([4]; first compound 0.001 µM) | relative viability ([4]; first compound 0.003162 µM) | relative viability ([4]; first compound 0.01 µM) | relative viability ([4]; first compound 0.03162 µM) | relative viability ([4]; first compound 0.1 µM)
NCI-H3122 | 0.607 | 0.652 | 0.676 | 0.636 | 0.57 | 0.489 | 0.89 | 0.819 | 0.382 | 0.314 | 0.247 | 0.302 | 0.295 | 0.257 | 0.282 | 0.201 | 0.223 | 0.229 | 0.185 | 0.264
NCI-H2023 | 0.515 | 0.623 | 0.481 | 0.496 | 0.257 | 0.347 | 0.363 | 0.314 | 0.142 | 0.0903 | 0.598 | 0.679 | 0.36 | 0.0967 | 0.0644 | 0.456 | 0.513 | 0.437 | 0.151 | 0.11
HCC-15 | 0.668 | 0.685 | 0.729 | 0.719 | 0.655 | – | 0.677 | 0.635 | 0.284 | 0.136 | 0.733 | 0.817 | 0.767 | 0.551 | 0.534 | 0.381 | 0.395 | 0.393 | 0.379 | 0.407
HCC-78 | 0.744 | 0.891 | 0.845 | 0.966 | 0.838 | 0.433 | 0.384 | 0.329 | 0.354 | 0.318 | 0.356 | 0.332 | 0.395 | 0.352 | 0.28 | 0.723 | 0.85 | 0.735 | 0.668 | 0.66
COR-L23 | 0.343 | 0.356 | 0.411 | 0.353 | 0.269 | 0.753 | 0.912 | 0.741 | 0.452 | 0.193 | 0.764 | 0.66 | 0.562 | 0.252 | 0.0977 | 0.54 | 0.526 | 0.545 | 0.254 | 0.149
HCC-827 | 0.648 | 0.737 | 0.67 | 0.606 | 0.624 | 0.725 | 0.714 | 0.796 | 0.671 | 0.754 | 0.982 | 0.993 | 0.913 | 0.955 | 0.908 | 0.549 | 0.526 | 0.533 | 0.509 | 0.486
NCI-H1355 | 0.778 | 0.713 | 0.708 | 0.762 | 0.641 | 0.374 | 0.422 | 0.396 | 0.432 | 0.389 | 1.05 | 1.16 | 1.01 | 0.964 | 1.05 | 0.457 | 0.45 | 0.472 | 0.43 | 0.462
RERF-LC-KJ | 0.878 | 0.899 | 1.07 | 0.872 | 0.779 | 0.643 | 0.556 | 0.544 | 0.302 | 0.261 | 0.872 | 0.846 | 0.865 | 0.956 | 0.7 | 0.659 | 1.02 | 0.696 | 0.514 | 0.513
NCI-H2126 | 0.92 | 0.985 | 0.865 | 0.909 | 0.833 | 0.538 | 0.701 | 0.642 | 0.662 | 0.651 | 1.04 | 1.08 | 0.961 | 1.08 | 1.05 | 0.6 | 0.572 | 0.561 | 0.526 | 0.601
BEN | 1.2 | 0.865 | 1.16 | 1.29 | 0.972 | 0.301 | 0.28 | 0.335 | 0.301 | 0.29 | 0.925 | 0.968 | 0.825 | 0.707 | 0.832 | 1.02 | 0.854 | 0.897 | 0.723 | 0.968
LCLC-97TM1 | 0.498 | 0.365 | 0.462 | 0.336 | 0.389 | 0.516 | 0.684 | 0.558 | 0.573 | 0.529 | 0.365 | 0.455 | 0.244 | 0.344 | 0.371 | 0.193 | 0.219 | 0.15 | 0.199 | 0.209
EKVX | 0.99 | 0.999 | 0.798 | 0.91 | 0.782 | 0.727 | 0.66 | 0.702 | 0.639 | 0.695 | 0.865 | 1.02 | 0.792 | 1.02 | 0.948 | 0.384 | 0.317 | 0.368 | 0.39 | 0.361
PC-14 | – | 0.284 | 0.212 | 0.235 | 0.204 | 0.683 | 1.14 | 0.865 | 0.161 | 0.0612 | 0.893 | 0.985 | 0.962 | 0.892 | 0.944 | 0.751 | 0.74 | 0.536 | 0.162 | 0.0928
NCI-H1651 | 0.195 | 0.198 | 0.184 | 0.182 | 0.145 | 0.682 | 0.679 | 0.554 | 0.298 | 0.22 | 0.934 | 0.929 | 0.855 | 0.836 | 0.871 | 0.82 | 0.843 | 0.817 | 0.707 | 0.796
NCI-H2087 | 0.547 | 0.682 | 0.489 | 0.54 | 0.448 | – | 0.702 | 0.414 | 0.403 | 0.269 | 0.795 | 0.952 | 0.923 | 0.661 | 0.666 | 0.17 | 0.201 | 0.158 | 0.172 | 0.166
